Measurements from patent US10577363B2, “Substituted piperidine compounds” (EPIZYME, INC., priority 2014, dated 2020).
pIC50: −log10 of the molar value. One block for each compound: values may come before it.

Key:
[1] = biological target: T1, SMYD3 (Homo sapiens (Human), UniProt Q9H7B4); assay: SMYD3 biochemical assay (SPA, 3H-SAM methylation of MEKK2 protein substrate); settings: for IC50: read-out: SMYD3 Biochem IC50 (μM)*
How it was run: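 Native full-length human SMYD3 (E. coli-expressed, tags removed) was preincubated with compound for 30 min at room temperature in 25 mM Tris-Cl pH 8.0, 1 mM TCEP, 0.005% BSG, 0.005% Tween 20. Reaction was started with 3H-SAM plus GST-MEKK2, quenched with 100 uM unlabeled SAM, and read by SPA scintillation counting.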

[2] = biological target: T1, SMYD3; assay: SMYD3 cell assay (Trimethyl-MEKK2 In-Cell Western in 293T/17 cells); type: cell-based; settings: for IC50: 293T/17 cells, read-out: SMYD3 Cell IC50 (μM)*; for pIC50: read-out: SMYD3 Cell IC50
Description: Trimethyl-MEKK2-in-Cell Western Assay
MEM/Glutamax medium, Optimem Reduced Serum medium, penicillin-streptomycin, 0.05% trypsin and 1×D-PBS were purchased from Life Technologies, Grand Island, N.Y., USA. PBS-10× was purchased from Ambion, Life Technologies, Grand Island, N.Y., USA. PBS with Tween 20 (PBST (10×)) was purchased from KPL, Gaithersburg, Md., USA. Tet System FBS-approved FBS US Source was purchased from Clontech, Mountain View, Calif., USA. Odyssey blocking buffer, 800CW goat anti-rabbit IgG (H+L) antibody, 680CW Goat anti-mouse IgG (H+L) and Licor Odyssey infrared scanner were purchased from Licor Biosciences, Lincoln, Nebr., USA. Tri-methyl-Lysine [A260]-MEKK2 antibody, MEKK2 and SMYD3 plasmids were made at Epizyme. Anti-flag monoclonal mouse antibody was purchased from Sigma, St. Louis, Mo., USA. Methanol was purchased from VWR, Franklin, Mass., USA. 10% Tween 20 was purchased from KPL, Inc., Gaithersburg, Md., USA. Fugene was purchased from Promega, Madison, Wis., USA. The Biotek ELx405 was purchased from BioTek, Winooski, Vt., USA. The multidrop combi was purchased from Thermo Scientific, Waltham, Mass., USA.
Cell Treatment, in Cell Western (ICW) for Detection of Trimethyl-Lysine-MEKK2 and MEKK2.
Plasmids were prepared for delivery to cells by first mixing 1350 μL Opti-MEM with Fugene (81 μL) in a sterile Eppendorf and incubated for five minutes at room temperature (RT). […] Entire volume of Opti-MEM/Fugene mixture was then added to a microfuge tube containing DNA plasmid, mixed and then incubated×15 minutes at RT. […] Medium was then removed, and cells were washed once with PBS in the flask. Trypsin 0.05% (3 mL) was added and cells incubated for three minutes. Room temperature MEM+10% Tet system FBS was added and cells were mixed gently, and counted using the Vi-cell. Cells were seeded at 100,000 cells/mL in 50 μL MEM/10% Tet FBS/Pen/Strep to a 384 well black/clear poly-D-lysine coated plate containing test agent diluted in DMSO. The final top concentration of test compound was 40 μM. […] Plates were incubated×30 minutes at RT in low-airflow area, followed by incubation at 37° C. under 5% CO2 for 24 hours. Medium was aspirated from all wells of assay plates prior to fixation and permeabilization with ice cold (−20° C.) methanol (90 μL/well) for ten minutes. Plates were rinsed with PBS three times on BioTek ELx405. PBS was removed with a final aspiration, and Odyssey blocking buffer (50 μL/well) was added to each well and incubated for one hour at RT. Primary antibody solution was prepared (anti-trimethyl-MEKK2 at 1:600 dilution plus mouse anti-flag antibody at 1:10,000 dilution in diluent (Odyssey Blocking buffer+0.1% Tween 20)) and 20 μL per well was dispensed using the Multidrop Combi. Assay plates were then sealed with foil, and incubated overnight at 4° C. Plates were washed five times with PBS-Tween (1×) on Biotek ELx405 and blotted on paper towel to remove excess reagent.
First, the ratio for each well was determined by:
Each plate included fourteen control wells of DMSO only treatment (Minimum Inhibition) as well as fourteen control wells for maximum inhibition (Background). The average of the ratio values for each control type was calculated and used to determine the percent inhibition for each test well in the plate. Reference compound was serially diluted two-fold in DMSO for a total of nine test concentrations, beginning at 40 μM.
Percent inhibition was calculated (below).
Non-linear regression curves were generated to calculate the IC50 and dose-response relationship using triplicate wells per concentration of compound.

[3] = Table 1A, IC50 values are an average of n = 1 to n = 50
[4] = Table 1A, IC50 values are an average of n = 1 to n = 50, read-out: SMYD3 Biochem IC50
[5] = average of n = 1 to n = 50, read-out: SMYD3 Biochem IC50

T1 sequence (Q9H7B4 whole entry): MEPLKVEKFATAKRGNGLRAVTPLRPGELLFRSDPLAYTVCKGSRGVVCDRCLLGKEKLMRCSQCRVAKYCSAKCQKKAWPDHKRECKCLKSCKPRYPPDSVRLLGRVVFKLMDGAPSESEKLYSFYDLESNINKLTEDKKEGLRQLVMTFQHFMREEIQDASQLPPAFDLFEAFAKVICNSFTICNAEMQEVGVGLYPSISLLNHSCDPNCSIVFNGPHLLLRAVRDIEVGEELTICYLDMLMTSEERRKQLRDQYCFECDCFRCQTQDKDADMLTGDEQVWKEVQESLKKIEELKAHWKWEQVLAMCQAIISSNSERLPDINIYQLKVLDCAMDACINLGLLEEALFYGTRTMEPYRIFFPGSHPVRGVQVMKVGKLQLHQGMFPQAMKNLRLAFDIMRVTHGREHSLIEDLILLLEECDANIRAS

- IC50 [1]: 0.00307 µM
- IC50 [2]: 0.0508 µM
Structure (SMILES): C[C@H]1C[C@@H](NC(=O)c2cc(C3CC3)on2)CCN1S(=O)(=O)CC1CCNCC1 (single isomer, unassigned) [Cpd. No. 417]

- IC50 [1]: 0.0172 µM
- IC50 [2]: 0.197 µM
Structure (SMILES): C[C@@H]1C[C@H](NC(=O)c2cc(C3CC3)on2)CCN1S(=O)(=O)CC1CCNCC1 (single isomer, unassigned) [Cpd. No. 418]

Structure (SMILES): O=C(N[C@@H]1C[C@H]2CC[C@@H](C1)N2S(=O)(=O)CCN1CCCC1)c1cc(C2CC2)on1 (single isomer, unassigned) [Cpd. No. 436]
- IC50 [1]: 0.0613 µM
- IC50 [2]: 0.285 µM

- IC50 [2]: 2.03 µM
Structure (SMILES): C[C@@H]1C[C@H](NC(=O)c2cc(C3CC3)on2)CCN1C(=O)c1ccc(C2(N)CCC2)cc1 [compound 479, N-((2R,4R)-1-(4-(1-aminocyclobutyl)benzoyl)-2-methylpiperidin-4-yl)-5-cyclopropylisoxazole-3-carboxamide]

Structure (SMILES): O=C(N[C@@H]1C[C@H]2CC[C@@H](C1)N2S(=O)(=O)c1ccc2[nH]c(=O)[nH]c2c1)c1cc(C2CC2)on1 [compound 494, 5-cyclopropyl-N-((1R,3s,5S)-8-((2-oxo-2,3-dihydro-1H-benzo[d]imidazol-5-yl)sulfonyl)-8-azabicyclo[3.2.1]octan-3-yl)isoxazole-3-carboxamide]
- pIC50 [2, 3]: 5.29

- pIC50 [2, 3]: 5.35
Structure (SMILES): CC(C)[C@H]1C[C@@H](NC(=O)c2cc(C3CC3)on2)CCN1S(=O)(=O)CCCN [compound 501, N-((2R,4S)-1-((3-aminopropyl)sulfonyl)-2-isopropylpiperidin-4-yl)-5-cyclopropylisoxazole-3-carboxamide]

- pIC50 [1, 4]: 6.69
Structure (SMILES): C[C@H]1C[C@@H](NC(=O)c2cc(C3CC3)on2)CCN1S(=O)(=O)c1cccc(C(F)(F)F)n1 [compound 519, 5-cyclopropyl-N-((2S,4S)-2-methyl-1-((6-(trifluoromethyl)pyridin-2-yl)sulfonyl)piperidin-4-yl)isoxazole-3-carboxamide]

- pIC50 [1, 4]: 7.30
Structure (SMILES): C[C@H]1C[C@@H](NC(=O)c2cc(C3CC3)on2)CCN1S(=O)(=O)c1cccc(NCCCN)n1 [compound 520, N-((2S,4S)-1-((6-((3-aminopropyl)amino)pyridin-2-yl)sulfonyl)-2-methylpiperidin-4-yl)-5-cyclopropylisoxazole-3-carboxamide]

- pIC50 [1, 4]: 5.35
Structure (SMILES): C[C@H]1C[C@@H](NC(=O)c2cc(C3CC3)on2)CCN1S(=O)(=O)c1cccc(N(C)CCN2CCOCC2)n1 [compound 521, 5-cyclopropyl-N-((2S,4S)-2-methyl-1-((6-(methyl(2-morpholinoethyl)amino)pyridin-2-yl)sulfonyl)piperidin-4-yl)isoxazole-3-carboxamide]

- pIC50 [1, 4]: 6.39
Structure (SMILES): C[C@H]1C[C@@H](NC(=O)c2cc(C3CC3)on2)CCN1S(=O)(=O)c1ccc(N)nc1 [compound 522, N-((2S,4S)-1-((6-aminopyridin-3-yl)sulfonyl)-2-methylpiperidin-4-yl)-5-cyclopropylisoxazole-3-carboxamide]

- pIC50 [1, 4]: 5.97
Structure (SMILES): C[C@H]1C[C@@H](NC(=O)c2cc(C3CC3)on2)CCN1S(=O)(=O)c1cccnc1N [compound 523, N-((2S,4S)-1-((2-aminopyridin-3-yl)sulfonyl)-2-methylpiperidin-4-yl)-5-cyclopropylisoxazole-3-carboxamide]

- pIC50 ([1]; read-out: SMYD3 Biochem IC50): 5.73
Structure (SMILES): CNc1ncccc1S(=O)(=O)N1C2CCCC1CC(NC(=O)c1cc(C3CC3)on1)C2 (centres unmarked) [compound 524, 5-cyclopropyl-N-(9-((2-(methylamino)pyridin-3-yl)sulfonyl)-9-azabicyclo[3.3.1]nonan-3-yl)isoxazole-3-carboxamide]

- pIC50 ([1]; Table 2A, read-out: SMYD3 Biochem IC50): 8.29
Structure (SMILES): CNCCCCS(=O)(=O)N1CC[C@H](NC(=O)c2cc(C3CC3)on2)C[C@@H]1C [compound 561, 5-cyclopropyl-N-((2S,4S)-2-methyl-1-((4-(methylamino)butyl)sulfonyl)piperidin-4-yl)isoxazole-3-carboxamide]

Structure (SMILES): COCCN(C)CCCS(=O)(=O)N1[C@@H]2CC[C@H]1C[C@@H](NC(=O)c1cc(C3CC3)on1)C2 [compound 665, 5-cyclopropyl-N-((1R,3r,5S)-8-((3-((2-methoxyethyl)(methyl)amino)propyl)sulfonyl)-8-azabicyclo[3.2.1]octan-3-yl)isoxazole-3-carboxamide]
- pIC50 [1, 5]: 7.06

- pIC50 ([2]; average of n = 1 to n = 50): 6.03
Structure (SMILES): C[C@@H]1CN(S(=O)(=O)CCCNCc2ccccc2)[C@H](C)C[C@@H]1NC(=O)c1cc(C2CC2)on1 [compound 681, N-((2R,4S,5R)-1-((3-(benzylamino)propyl)sulfonyl)-2,5-dimethylpiperidin-4-yl)-5-cyclopropylisoxazole-3-carboxamide]

- pIC50 [1, 5]: 6.66
Structure (SMILES): C[C@@H]1C[C@@H](NC(=O)c2cc(C3CC3)on2)CCN1S(=O)(=O)C(CCN)c1ccccc1 (stereo partly drawn) [compound 704, N-((2R,4S)-1-((3-amino-1-phenylpropyl)sulfonyl)-2-methylpiperidin-4-yl)-5-cyclopropylisoxazole-3-carboxamide]

- pIC50 [1, 5]: 6.30
Structure (SMILES): Nc1cccc(S(=O)(=O)N2[C@@H]3CCC[C@H]2C[C@H](NC(=O)c2cc(C4CC4)on2)C3)n1 [compound 740, N-((1R,3s,5S)-9-((6-aminopyridin-2-yl)sulfonyl)-9-azabicyclo[3.3.1]nonan-3-yl)-5-cyclopropylisoxazole-3-carboxamide]

- pIC50 [1, 5]: 6.29
Structure (SMILES): Cc1ccnc(S(=O)(=O)N2CC[C@H](NC(=O)c3cc(C4CC4)on3)C[C@@H]2C)c1 [compound 741, 5-cyclopropyl-N-((2S,4S)-2-methyl-1-((4-methylpyridin-2-yl)sulfonyl)piperidin-4-yl)isoxazole-3-carboxamide]

- pIC50 [1, 5]: 6.13
Structure (SMILES): CC1(C(=O)N2CCC(NC(=O)c3cc(C4CC4)on3)CC2)CCNCC1 [compound 760, 5-cyclopropyl-N-(1-(4-methylpiperidine-4-carbonyl)piperidin-4-yl)isoxazole-3-carboxamide]

Structure (SMILES): Cc1ccc(S(=O)(=O)N2C3CCC[C@@H]2C[C@@H](NC(=O)c2cc(C4CC4)on2)C3)nc1 [compound 763, 5-cyclopropyl-N-((1R,3S)-9-((5-methylpyridin-2-yl)sulfonyl)-9-azabicyclo[3.3.1]nonan-3-yl)isoxazole-3-carboxamide]
- pIC50 [1, 5]: 6.11

- pIC50 ([1]; read-out: SMYD3 Biochem IC50*): 8.16
Structure (SMILES): C[C@H]1C[C@@H](NC(=O)c2cc(C3CC3)on2)CCN1S(=O)(=O)C[C@H]1CCCNC1 [compound 854, 5-cyclopropyl-N-((2S,4S)-2-methyl-1-((((S)-piperidin-3-yl)methyl)sulfonyl)piperidin-4-yl)isoxazole-3-carboxamide]

- pIC50 ([1]; read-out: SMYD3 Biochem IC50*): 8.00
Structure (SMILES): C[C@H]1C[C@@H](NC(=O)c2cc(C3CC3)on2)CCN1S(=O)(=O)C[C@@H]1CCCNC1 [compound 875, 5-cyclopropyl-N-((2S,4S)-2-methyl-1-((((R)-piperidin-3-yl)methyl)sulfonyl)piperidin-4-yl)isoxazole-3-carboxamide]

Structure (SMILES): O=C(N[C@H]1C[C@H]2CC[C@@H](C1)N2S(=O)(=O)N1CCNCC1Cc1ccccc1)c1cc(C2CC2)on1 (stereo partly drawn) [compound 940, N-((1R,3r,5S)-8-((2-benzylpiperazin-1-yl)sulfonyl)-8-azabicyclo[3.2.1]octan-3-yl)-5-cyclopropylisoxazole-3-carboxamide]
- pIC50 ([1]; read-out: SMYD3 Biochem IC50*): 7.32
